Measured values taken from patent US12559529B2, “NPY2 receptor agonists” (Boehringer Ingelheim International GmbH, priority 2019, dated 2026).

Tests used:
normal NMRI mice = experiment: Effect on acute food intake in normal NMRI mice; type: in vivo; conditions: male NMRI mice, 10 nmol/kg subcutaneously once
Summary of the method: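 A single 10 nmol/kg s.c. peptide dose was given 1 h before lights-off to male NMRI mice fasted from 6 h before the night phase (n=7-8). Intake was recorded continuously by microchip-identified HM-2 feeding channels. Values are normalized to vehicle controls (50 mM phosphate buffer pH7 with 5% Mannitol).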

[1] = target: T1, Human Neuropeptide Y2 Receptor (Homo sapiens, UniProt P49146); experiment: Radioligand binding competition assay (RLB); conditions: Table 3; human 125I-PYY (1-36) 0.02 nM, Y2 receptor membranes; read-out: Ki
T1 construct: purchased CHEMICON HTS066M
T1 sequence (P49146 1-381): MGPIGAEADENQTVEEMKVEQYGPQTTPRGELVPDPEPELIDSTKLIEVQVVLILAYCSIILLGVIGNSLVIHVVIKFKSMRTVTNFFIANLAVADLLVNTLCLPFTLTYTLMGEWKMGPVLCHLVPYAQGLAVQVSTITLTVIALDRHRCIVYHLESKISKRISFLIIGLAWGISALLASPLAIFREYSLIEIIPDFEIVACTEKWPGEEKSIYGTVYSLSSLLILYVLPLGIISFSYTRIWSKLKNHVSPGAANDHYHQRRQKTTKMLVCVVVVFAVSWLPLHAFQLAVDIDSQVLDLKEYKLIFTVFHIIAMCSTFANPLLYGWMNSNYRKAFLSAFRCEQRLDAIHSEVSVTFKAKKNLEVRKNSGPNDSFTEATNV
Summary of the method: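 Competition binding on human Y2 receptor membranes, 0.5 μg protein/well, in 50 mM HEPES, 5 mM MgCl2, 1 mM CaCl2, pH 7.4, 0.2% ovalbumin; peptides diluted from 1 mM DMSO stocks.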

SMILES	Ki [1] [nM]	Acute Food Intake 24 h [% vehicle] (normal NMRI mice)
CC(C)CC(=O)N[C@@H](C)C(=O)N1CCC[C@H]1C(=O)N[C@@H](CCC(=O)O)C(=O)N[C@@H](CCCCNC(=O)COCCOCCNC(=O)COCCOCCNC(=O)CC[C@H](NC(=O)CCCCCCCCCCCCCCCCC(=O)O)C(=O)O)C(=O)N1CCC[C@H]1C(=O)N[C@@H](CCC(=O)O)C(=O)N[C@@H](CCC(=O)O)C(=O)N[C@@H](CC(=O)O)C(=O)N[C@@H](C)C(=O)N[C@@H](CO)C(=O)N[C@@H](CCC(=O)O)C(=O)N[C@@H](CCC(=O)O)C(=O)N[C@@H](CCC(=O)O)C(=O)N[C@@H](CC(C)C)C(=O)N[C@@H](CCC(N)=O)C(=O)N[C@@H](CCCNC(=N)N)C(=O)N[C@@H](Cc1ccc(O)cc1)C(=O)N[C@@H](Cc1ccc(O)cc1)C(=O)N[C@H](C(=O)N[C@@H](CO)C(=O)N[C@@H](CC(C)C)C(=O)N[C@@H](CCCNC(=N)N)C(=O)N[C@@H](Cc1c[nH]cn1)C(=O)N[C@@H](Cc1ccc(O)cc1)C(=O)N[C@@H](Cc1ccc(O)cc1)C(=O)N[C@@H](CC(N)=O)C(=O)N[C@@H](Cc1c[nH]c2ccccc12)C(=O)N[C@@H](CC(C)C)C(=O)N[C@H](C(=O)N[C@@H](CCCNC(=N)N)C(=O)N[C@@H](CCC(N)=O)C(=O)N[C@@H](CCCNC(=N)N)C(=O)N[C@@H](Cc1ccc(O)cc1)C(N)=O)[C@@H](C)O)C(C)C [Compound 176, N{alpha-4}-(3-methylbutanoyl)-N{epsilon-7}-[2-(2-{2-[2-(2-{2-[(4S)-4-carboxy-4-(17-carboxyheptadecanamido)butanamido]ethoxy}ethoxy)acetamido]ethoxy}ethoxy)acetamido]-[4A,7K,9E,14E,18Q,22V,28Y,30W,31L]hPYY (4-36)]	3.05	52
CC(C)CC(=O)N[C@@H](C)C(=O)N1CCC[C@H]1C(=O)N[C@@H](CCC(=O)O)C(=O)N[C@@H](CCCCNC(=O)COCCOCCNC(=O)COCCOCCNC(=O)CC[C@H](NC(=O)CCCCCCCCCCCCCCCCC(=O)O)C(=O)O)C(=O)N1CCC[C@H]1C(=O)N[C@@H](CCC(=O)O)C(=O)N[C@@H](CCC(=O)O)C(=O)N[C@@H](CC(=O)O)C(=O)N[C@@H](C)C(=O)N[C@@H](CO)C(=O)N1CCC[C@H]1C(=O)N[C@@H](CCC(=O)O)C(=O)N[C@@H](CCC(=O)O)C(=O)N[C@H](C(=O)N[C@@H](CCC(N)=O)C(=O)N[C@@H](CCC(N)=O)C(=O)N[C@@H](Cc1ccc(O)cc1)C(=O)N[C@@H](Cc1ccc(O)cc1)C(=O)N[C@H](C(=O)N[C@@H](CO)C(=O)N[C@@H](CC(C)C)C(=O)N[C@@H](CCCNC(=N)N)C(=O)N[C@@H](Cc1c[nH]cn1)C(=O)N[C@@H](Cc1ccc(O)cc1)C(=O)N[C@@H](Cc1ccc(O)cc1)C(=O)N[C@@H](CC(N)=O)C(=O)N[C@@H](Cc1c[nH]c2ccccc12)C(=O)N[C@@H](CC(C)C)C(=O)N[C@H](C(=O)N[C@@H](CCCNC(=N)N)C(=O)N[C@@H](CCC(N)=O)C(=O)N[C@@H](CCCNC(=N)N)C(=O)N[C@@H](Cc1ccc(O)cc1)C(N)=O)[C@@H](C)O)C(C)C)[C@@H](C)O [Compound 180, N{alpha-4}-(3-methylbutanoyl)-N{epsilon-7}-[2-(2-{2-[2-(2-{2-[(4S)-4-carboxy-4-(17-carboxyheptadecanamido)butanamido]ethoxy}ethoxy)acetamido]ethoxy}ethoxy)acetamido]-[4A,7K,9E,17T,18Q,19Q,22V,28Y,30W,31L]hPYY (4-36)]	3.85	74
CC(C)CC(=O)N[C@@H](C)C(=O)N1CCC[C@H]1C(=O)N[C@@H](CCC(=O)O)C(=O)N[C@@H](CCCCNC(=O)COCCOCCNC(=O)COCCOCCNC(=O)CC[C@H](NC(=O)CCCCCCCCCCCCCCCCC(=O)O)C(=O)O)C(=O)N1CCC[C@H]1C(=O)N[C@@H](CCC(=O)O)C(=O)N[C@@H](CCC(=O)O)C(=O)N[C@@H](CCC(=O)O)C(=O)N[C@@H](C)C(=O)N[C@@H](CO)C(=O)N1CCC[C@H]1C(=O)N[C@@H](CCC(=O)O)C(=O)N[C@@H](CCC(=O)O)C(=O)N[C@@H](CC(C)C)C(=O)N[C@@H](CCC(N)=O)C(=O)N[C@@H](CCCNC(=N)N)C(=O)N[C@@H](Cc1ccc(O)cc1)C(=O)N[C@@H](Cc1ccc(O)cc1)C(=O)N[C@H](C(=O)N[C@@H](CCC(=O)O)C(=O)N[C@@H](CC(C)C)C(=O)N[C@@H](CCCNC(=N)N)C(=O)N[C@@H](Cc1c[nH]cn1)C(=O)N[C@@H](Cc1ccc(O)cc1)C(=O)N[C@@H](Cc1ccc(O)cc1)C(=O)N[C@@H](CC(N)=O)C(=O)N[C@@H](Cc1c[nH]c2ccccc12)C(=O)N[C@@H](CC(C)C)C(=O)N[C@H](C(=O)N[C@@H](CCCNC(=N)N)C(=O)N[C@@H](CCC(N)=O)C(=O)N[C@@H](CCCNC(=N)N)C(=O)N[C@@H](Cc1ccc(O)cc1)C(N)=O)[C@@H](C)O)C(C)C [Compound 185, N{alpha-4}-(3-methylbutanoyl)-N{epsilon-7}-[2-(2-{2-[2-(2-{2-[(4S)-4-carboxy-4-(17-carboxyheptadecanamido)butanamido]ethoxy}ethoxy)acetamido]ethoxy}ethoxy)acetamido]-[4A,7K,9E,11E,18Q,22V,23E,28Y,30W,31L]hPYY (4-36)]	3.58	39

More lines, main results first:

Ki [1] [nM]	SMILES	Acute Food Intake 24 h [% vehicle] (normal NMRI mice)
1.71	CC(C)CC(=O)N[C@@H](C)C(=O)N1CCC[C@H]1C(=O)N[C@@H](C)C(=O)N[C@@H](CCCCNC(=O)COCCOCCNC(=O)COCCOCCNC(=O)CC[C@H](NC(=O)CCCCCCCCCCCCCCCCC(=O)O)C(=O)O)C(=O)N1CCC[C@H]1C(=O)N[C@@H](CCC(=O)O)C(=O)N[C@@H](CCC(=O)O)C(=O)N[C@@H](CC(=O)O)C(=O)N[C@@H](C)C(=O)N[C@@H](CO)C(=O)N1CCC[C@H]1C(=O)N[C@@H](CCC(=O)O)C(=O)N[C@@H](CCC(=O)O)C(=O)N[C@@H](CC(C)C)C(=O)N[C@@H](CCC(N)=O)C(=O)N[C@@H](CCCNC(=N)N)C(=O)N[C@@H](Cc1ccc(O)cc1)C(=O)N[C@@H](Cc1ccc(O)cc1)C(=O)N[C@H](C(=O)N[C@@H](CCC(=O)O)C(=O)N[C@@H](CC(C)C)C(=O)N[C@@H](CCCNC(=N)N)C(=O)N[C@@H](Cc1c[nH]cn1)C(=O)N[C@@H](Cc1ccc(O)cc1)C(=O)N[C@@H](Cc1ccc(O)cc1)C(=O)N[C@@H](CC(N)=O)C(=O)N[C@@H](Cc1c[nH]c2ccccc12)C(=O)N[C@@H](CC(C)C)C(=O)N[C@H](C(=O)N[C@@H](CCCNC(=N)N)C(=O)N[C@@H](CCC(N)=O)C(=O)N[C@@H](CCCNC(=N)N)C(=O)N[C@@H](Cc1ccc(O)cc1)C(N)=O)[C@@H](C)O)C(C)C [Compound 173, N{alpha-4}-(3-methylbutanoyl)-N{epsilon-7}-[2-(2-{2-[2-(2-{2-[(4S)-4-carboxy-4-(17-carboxyheptadecanamido)butanamido]ethoxy}ethoxy)acetamido]ethoxy}ethoxy)acetamido]-[4A,6A,7K,9E,18Q,22V,23E,28Y,30W,31L]hPYY (4-36)]	49
3.89	CC(C)CC(=O)N[C@@H](C)C(=O)N1CCC[C@H]1C(=O)N[C@@H](C)C(=O)N[C@@H](CCCCNC(=O)COCCOCCNC(=O)COCCOCCNC(=O)CC[C@H](NC(=O)CCCCCCCCCCCCCCCCC(=O)O)C(=O)O)C(=O)N1CCC[C@H]1C(=O)N[C@@H](CCC(=O)O)C(=O)N[C@@H](CCC(=O)O)C(=O)N[C@@H](CC(=O)O)C(=O)N[C@@H](C)C(=O)N[C@@H](CCC(=O)O)C(=O)N1CCC[C@H]1C(=O)N[C@@H](CCC(=O)O)C(=O)N[C@@H](CCC(=O)O)C(=O)N[C@@H](CC(C)C)C(=O)N[C@@H](CCC(N)=O)C(=O)N[C@@H](CCCNC(=N)N)C(=O)N[C@@H](Cc1ccc(O)cc1)C(=O)N[C@@H](Cc1ccc(O)cc1)C(=O)N[C@H](C(=O)N[C@@H](CO)C(=O)N[C@@H](CC(C)C)C(=O)N[C@@H](CCCNC(=N)N)C(=O)N[C@@H](Cc1c[nH]cn1)C(=O)N[C@@H](Cc1ccc(O)cc1)C(=O)N[C@@H](Cc1ccc(O)cc1)C(=O)N[C@@H](CC(N)=O)C(=O)N[C@@H](Cc1c[nH]c2ccccc12)C(=O)N[C@@H](CC(C)C)C(=O)N[C@H](C(=O)N[C@@H](CCCNC(=N)N)C(=O)N[C@@H](CCC(N)=O)C(=O)N[C@@H](CCCNC(=N)N)C(=O)N[C@@H](Cc1ccc(O)cc1)C(N)=O)[C@@H](C)O)C(C)C [Compound 174, N{alpha-4}-(3-methylbutanoyl)-N{epsilon-7}-[2-(2-{2-[2-(2-{2-[(4S)-4-carboxy-4-(17-carboxyheptadecanamido)butanamido]ethoxy}ethoxy)acetamido]ethoxy}ethoxy)acetamido]-[4A,6A,7K,9E,13E,18Q,22V,28Y,30W,31L]hPYY (4-36)]	41
